Among the test systems are A498 renal; A549 NSCLC; ACHN renal; HCC-2998 colon; HCT-15 colon; HOP-62 NSCLC; MALME-3M melanoma; MOLT-4 leukemia; NCI-H226 lung; OVCAR-8 ovarian; RPMI-8226 leukemia; SK-MEL-5 melanoma; SN12C renal; SR leukemia; U251 CNS; DU-145 prostate; HS 578T breast; MDA-MB-231 breast.
What all share (assay): NCI-60 cell line screen, 48 h

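In this assay, cells in 96-well plates receive the compound at five concentrations for 48 hours. Endpoints are linearly interpolated between the surrounding concentrations. TGI marks complete inhibition of growth.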 Some results are limits rather than exact numbers.

On to `CC(/C=C/c1ccccc1)=N\N=C(C)\C=C\c1ccccc1`, for which the TGI with A498 renal, with A549 NSCLC, in the test on ACHN renal, in the test with HCC-2998 colon, with HCT-15 colon and in the test with HOP-62 NSCLC was greater than 100 µM throughout. Moreover, the TGI in the test with MALME-3M melanoma, with MOLT-4 leukemia, in the test on NCI-H226 lung, in the test with OVCAR-8 ovarian, with RPMI-8226 leukemia and in the test on SK-MEL-5 melanoma was greater than 100 µM each time. The TGI in the test with SN12C renal, with SR leukemia and with U251 CNS was greater than 100 µM throughout.

On to `O=c1oc2cc(O)ccc2c(O)c1C(c1ccc2ccccc2c1)c1c(O)c2ccc(O)cc2oc1=O`, for which the TGI with A498 renal, with A549 NSCLC, in the test with DU-145 prostate, in the test with HCC-2998 colon, in the test with HCT-15 colon and with HOP-62 NSCLC was greater than 100 µM each time. Besides, the TGI with HS 578T breast was 59.7 µM; with MDA-MB-231 breast, greater than 100 µM; with MOLT-4 leukemia, greater than 100 µM; in the test with NCI-H226 lung, greater than 100 µM; in the test on OVCAR-8 ovarian it was greater than 100 µM; in the test on RPMI-8226 leukemia it was 85.2 µM. Besides, the TGI in the test with SK-MEL-5 melanoma is greater than 100 µM; in the test with SN12C renal, greater than 100 µM; with SR leukemia, 67.1 µM; with U251 CNS it was greater than 100 µM.

`Cc1nc2ccc(F)cc2c2c1CCN2c1ccccc1`: the TGI was 77.2 µM in the test on A498 renal; 68 µM in the test on A549 NSCLC; 67 µM in the test with ACHN renal; greater than 100 µM in the test with DU-145 prostate; 38.2 µM with HCC-2998 colon; greater than 100 µM in the test with HCT-15 colon. For the same compound, the TGI is greater than 100 µM with HOP-62 NSCLC; greater than 100 µM with HS 578T breast; 40.8 µM in the test on MALME-3M melanoma; 52.4 µM with MOLT-4 leukemia; 41.8 µM in the test on NCI-H226 lung; 44.6 µM with OVCAR-8 ovarian. In addition, the TGI came to 37.1 µM with RPMI-8226 leukemia, 26.8 µM in the test on SK-MEL-5 melanoma, 37 µM in the test on SR leukemia and 78.9 µM in the test with U251 CNS.

In the case of `SCc1ccc(-c2ccc(CS)cc2)cc1`, the TGI in the test on A498 renal is greater than 64.3 µM; with A549 NSCLC it was 39.6 µM; in the test with ACHN renal it was 43.1 µM; in the test on HCC-2998 colon it was 30.6 µM; in the test on HCT-15 colon, 33.3 µM; with HOP-62 NSCLC, 14 µM. The TGI with HS 578T breast is 22.3 µM; with MALME-3M melanoma, 36.1 µM; in the test on MDA-MB-231 breast, 31 µM; with MOLT-4 leukemia it was 6.37 µM; in the test on NCI-H226 lung, 36.9 µM; in the test on OVCAR-8 ovarian it was 53.7 µM. The TGI with RPMI-8226 leukemia was 30.6 µM; with SK-MEL-5 melanoma, 31 µM; in the test on SN12C renal, greater than 81.2 µM; in the test with SR leukemia, 5.79 µM; in the test with U251 CNS it was 31.1 µM.

Consider `Cn1c(=O)c2c(nc(N3CCOCC3)n2CCCNCC(O)c2ccc(O)c(O)c2)n(C)c1=O` (stereo not given), for which the TGI in the test on A498 renal, in the test with A549 NSCLC, with ACHN renal, in the test on DU-145 prostate, with HCT-15 colon and in the test with HOP-62 NSCLC was greater than 100 µM in each case. Moreover, the TGI in the test with HS 578T breast, with MALME-3M melanoma, in the test on MDA-MB-231 breast, in the test on MOLT-4 leukemia, in the test with NCI-H226 lung and in the test on OVCAR-8 ovarian was greater than 100 µM in each case. The TGI in the test with RPMI-8226 leukemia, with SK-MEL-5 melanoma, with SN12C renal, with SR leukemia and with U251 CNS was greater than 100 µM in each case.

With `Clc1ccc(/C=c2\nc(-c3ccccc3)n3c2nc2ccccc23)cc1`, the TGI is greater than 100 µM in the test with A498 renal; greater than 100 µM in the test with A549 NSCLC; 50.6 µM with ACHN renal; greater than 100 µM in the test with DU-145 prostate; greater than 100 µM with HCT-15 colon; greater than 100 µM in the test on HOP-62 NSCLC. For the same compound, the TGI in the test on HS 578T breast, in the test on MALME-3M melanoma, in the test on MDA-MB-231 breast, with MOLT-4 leukemia, with NCI-H226 lung and in the test on OVCAR-8 ovarian was greater than 100 µM each time. Moreover, the TGI in the test on RPMI-8226 leukemia, in the test with SK-MEL-5 melanoma, with SN12C renal, with SR leukemia and in the test with U251 CNS was greater than 100 µM each time.

Turning to `O=C1CC2(CCN(CC3COc4ccccc4O3)CC2)C(=O)N1N1CCCCCC1` (stereo not given), the TGI in the test on A498 renal, in the test on A549 NSCLC, in the test with ACHN renal, with DU-145 prostate, in the test with HCT-15 colon and in the test with HOP-62 NSCLC was greater than 100 µM each time. Moreover, the TGI in the test with HS 578T breast is greater than 100 µM; with MALME-3M melanoma, greater than 100 µM; in the test with MDA-MB-231 breast, greater than 100 µM; in the test on MOLT-4 leukemia, 63.6 µM; in the test on NCI-H226 lung, greater than 100 µM; in the test on OVCAR-8 ovarian, greater than 100 µM. The TGI in the test with RPMI-8226 leukemia, in the test with SK-MEL-5 melanoma, in the test with SN12C renal, with SR leukemia and in the test with U251 CNS was greater than 100 µM throughout.

In the case of `Clc1ccc(-c2c3nc(c(-c4ccc(Cl)cc4)c4ccc([nH]4)c(-c4ccc(Cl)cc4)c4nc(c(-c5ccc(Cl)cc5)c5ccc2[nH]5)C=C4)C=C3)cc1`, the TGI with A549 NSCLC, in the test with ACHN renal, in the test on HCC-2998 colon, in the test with HCT-15 colon, in the test with HOP-62 NSCLC and with HS 578T breast was greater than 100 µM throughout. The TGI in the test with MALME-3M melanoma, in the test on MDA-MB-231 breast, in the test with MOLT-4 leukemia, in the test on OVCAR-8 ovarian, with RPMI-8226 leukemia and in the test with SK-MEL-5 melanoma was greater than 100 µM in each case. Further, the TGI in the test with SN12C renal, in the test on SR leukemia and in the test on U251 CNS was greater than 100 µM throughout.
